Data taken from ChEMBL document CHEMBL1149603, “5-Arylidene-2,4-thiazolidinediones as inhibitors of protein tyrosine phosphatases” (Bioorg Med Chem, 2007).
pIC50: −log10 of the molar value.

Experiments:
[1] = biological target: T1, Tyrosine-protein phosphatase non-receptor type 1 (Homo sapiens, UniProt P18031); test: Inhibition of human protein-tyrosine phosphatase 1B
T1 sequence (P18031 whole entry): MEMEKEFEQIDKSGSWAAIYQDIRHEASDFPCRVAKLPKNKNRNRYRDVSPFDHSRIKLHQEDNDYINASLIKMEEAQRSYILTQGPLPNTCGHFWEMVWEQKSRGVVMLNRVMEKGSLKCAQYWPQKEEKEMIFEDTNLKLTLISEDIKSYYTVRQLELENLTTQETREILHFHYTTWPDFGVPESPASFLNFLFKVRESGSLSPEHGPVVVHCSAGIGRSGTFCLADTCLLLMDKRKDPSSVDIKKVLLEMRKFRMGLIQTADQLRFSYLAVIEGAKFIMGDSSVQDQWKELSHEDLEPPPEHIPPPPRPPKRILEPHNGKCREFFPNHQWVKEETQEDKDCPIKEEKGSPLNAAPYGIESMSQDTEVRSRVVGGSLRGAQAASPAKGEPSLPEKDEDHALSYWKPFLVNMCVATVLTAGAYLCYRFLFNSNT

[2] = biological target: T2, Low molecular weight phosphotyrosine protein phosphatase (Saccharomyces cerevisiae S288c, UniProt P40347); test: Inhibition of Saccharomyces cerevisiae low molecular weight Protein-tyrosine phosphatase Ltp1
T2 sequence (P40347 whole entry): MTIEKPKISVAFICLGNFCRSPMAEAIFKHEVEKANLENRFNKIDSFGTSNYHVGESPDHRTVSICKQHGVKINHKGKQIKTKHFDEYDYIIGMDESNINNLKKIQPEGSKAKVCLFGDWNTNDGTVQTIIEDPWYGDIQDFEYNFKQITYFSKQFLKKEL

[3] = biological target: Receptor-type tyrosine-protein phosphatase beta (Homo sapiens, UniProt P23467); test: Inhibition of human protein-tyrosine phosphatase beta
Sequence of Receptor-type tyrosine-protein phosphatase beta (P23467 whole entry): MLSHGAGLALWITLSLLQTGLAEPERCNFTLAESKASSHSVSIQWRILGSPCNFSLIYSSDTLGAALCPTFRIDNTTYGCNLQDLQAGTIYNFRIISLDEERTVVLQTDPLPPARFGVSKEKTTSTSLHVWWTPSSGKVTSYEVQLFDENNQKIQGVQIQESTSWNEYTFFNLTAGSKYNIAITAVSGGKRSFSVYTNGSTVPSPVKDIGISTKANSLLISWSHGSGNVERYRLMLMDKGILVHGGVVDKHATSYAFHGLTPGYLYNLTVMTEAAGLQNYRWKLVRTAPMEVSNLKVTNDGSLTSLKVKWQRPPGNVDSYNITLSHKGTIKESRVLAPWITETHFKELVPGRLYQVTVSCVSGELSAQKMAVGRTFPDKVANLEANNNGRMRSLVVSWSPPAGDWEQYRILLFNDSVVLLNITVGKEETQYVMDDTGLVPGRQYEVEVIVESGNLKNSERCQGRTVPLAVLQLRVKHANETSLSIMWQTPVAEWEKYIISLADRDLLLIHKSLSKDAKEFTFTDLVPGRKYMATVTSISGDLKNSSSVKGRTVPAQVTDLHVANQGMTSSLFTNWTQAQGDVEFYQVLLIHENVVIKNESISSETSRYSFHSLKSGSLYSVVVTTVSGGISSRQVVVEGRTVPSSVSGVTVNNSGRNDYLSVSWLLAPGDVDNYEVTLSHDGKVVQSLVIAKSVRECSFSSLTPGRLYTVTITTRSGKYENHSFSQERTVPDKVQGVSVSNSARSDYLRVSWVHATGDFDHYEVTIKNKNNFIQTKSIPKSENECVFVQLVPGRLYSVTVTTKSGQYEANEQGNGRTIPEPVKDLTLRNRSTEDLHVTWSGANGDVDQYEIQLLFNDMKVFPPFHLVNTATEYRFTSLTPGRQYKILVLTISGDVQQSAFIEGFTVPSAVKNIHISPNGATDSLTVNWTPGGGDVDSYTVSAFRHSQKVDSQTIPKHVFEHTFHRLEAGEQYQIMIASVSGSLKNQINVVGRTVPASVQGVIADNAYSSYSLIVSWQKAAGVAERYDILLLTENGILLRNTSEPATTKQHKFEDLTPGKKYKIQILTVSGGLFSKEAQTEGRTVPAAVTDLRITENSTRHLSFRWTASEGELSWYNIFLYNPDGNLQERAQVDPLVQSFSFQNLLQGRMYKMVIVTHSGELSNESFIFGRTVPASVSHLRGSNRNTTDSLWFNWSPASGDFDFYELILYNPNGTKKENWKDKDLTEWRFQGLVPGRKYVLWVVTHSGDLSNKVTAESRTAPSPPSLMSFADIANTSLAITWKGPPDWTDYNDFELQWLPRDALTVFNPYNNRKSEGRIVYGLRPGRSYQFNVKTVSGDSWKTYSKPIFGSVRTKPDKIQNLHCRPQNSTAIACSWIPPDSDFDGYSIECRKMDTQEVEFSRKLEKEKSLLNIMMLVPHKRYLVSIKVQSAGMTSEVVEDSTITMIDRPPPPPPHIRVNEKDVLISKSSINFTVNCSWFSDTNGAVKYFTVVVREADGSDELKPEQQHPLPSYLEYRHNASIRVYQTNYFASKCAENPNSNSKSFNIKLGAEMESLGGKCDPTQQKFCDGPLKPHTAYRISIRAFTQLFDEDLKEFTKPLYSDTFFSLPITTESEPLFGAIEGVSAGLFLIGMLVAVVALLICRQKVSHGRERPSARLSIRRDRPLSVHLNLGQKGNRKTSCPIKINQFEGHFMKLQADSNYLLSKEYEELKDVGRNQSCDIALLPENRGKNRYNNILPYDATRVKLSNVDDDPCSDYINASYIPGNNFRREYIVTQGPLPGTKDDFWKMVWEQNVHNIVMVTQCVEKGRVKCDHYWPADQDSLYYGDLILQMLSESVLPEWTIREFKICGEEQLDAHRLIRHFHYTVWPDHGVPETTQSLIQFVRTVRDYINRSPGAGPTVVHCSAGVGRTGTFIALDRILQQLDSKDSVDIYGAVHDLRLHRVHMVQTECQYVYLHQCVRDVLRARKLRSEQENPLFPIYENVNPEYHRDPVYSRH

[4] = biological target: T3, Low molecular weight phosphotyrosine protein phosphatase (Homo sapiens, UniProt P24666); test: Inhibition of human low molecular weight Protein-tyrosine phosphatase IF2
T3 sequence (P24666 whole entry): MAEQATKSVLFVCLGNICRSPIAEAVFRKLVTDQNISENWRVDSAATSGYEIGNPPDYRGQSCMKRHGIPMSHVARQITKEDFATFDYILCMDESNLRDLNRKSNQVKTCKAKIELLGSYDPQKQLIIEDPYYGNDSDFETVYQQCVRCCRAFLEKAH

[5] = biological target: T4, Tyrosine-protein phosphatase non-receptor type 2 (Homo sapiens, UniProt P17706); test: Inhibition of human T cell protein-tyrosine phosphatase; assay type: cell-based
T4 sequence (P17706 whole entry): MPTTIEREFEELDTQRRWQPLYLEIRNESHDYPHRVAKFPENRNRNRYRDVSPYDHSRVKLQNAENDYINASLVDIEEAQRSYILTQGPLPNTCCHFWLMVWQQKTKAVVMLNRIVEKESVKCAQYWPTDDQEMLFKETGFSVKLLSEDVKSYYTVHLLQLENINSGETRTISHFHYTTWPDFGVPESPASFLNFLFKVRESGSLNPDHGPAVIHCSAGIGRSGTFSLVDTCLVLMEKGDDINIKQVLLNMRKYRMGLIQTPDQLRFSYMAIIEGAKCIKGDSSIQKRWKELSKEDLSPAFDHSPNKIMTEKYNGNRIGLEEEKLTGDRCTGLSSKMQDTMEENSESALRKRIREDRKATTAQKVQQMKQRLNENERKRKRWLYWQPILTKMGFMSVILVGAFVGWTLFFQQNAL

[6] = biological target: T3, Low molecular weight phosphotyrosine protein phosphatase; test: Inhibition of human low molecular weight Protein-tyrosine phosphatase IF1
[7] = biological target: Receptor-type tyrosine-protein phosphatase F (Homo sapiens, UniProt P10586); test: Inhibition of human leukocyte antigen related protein-tyrosine phosphatase
Sequence of Receptor-type tyrosine-protein phosphatase F (P10586 whole entry): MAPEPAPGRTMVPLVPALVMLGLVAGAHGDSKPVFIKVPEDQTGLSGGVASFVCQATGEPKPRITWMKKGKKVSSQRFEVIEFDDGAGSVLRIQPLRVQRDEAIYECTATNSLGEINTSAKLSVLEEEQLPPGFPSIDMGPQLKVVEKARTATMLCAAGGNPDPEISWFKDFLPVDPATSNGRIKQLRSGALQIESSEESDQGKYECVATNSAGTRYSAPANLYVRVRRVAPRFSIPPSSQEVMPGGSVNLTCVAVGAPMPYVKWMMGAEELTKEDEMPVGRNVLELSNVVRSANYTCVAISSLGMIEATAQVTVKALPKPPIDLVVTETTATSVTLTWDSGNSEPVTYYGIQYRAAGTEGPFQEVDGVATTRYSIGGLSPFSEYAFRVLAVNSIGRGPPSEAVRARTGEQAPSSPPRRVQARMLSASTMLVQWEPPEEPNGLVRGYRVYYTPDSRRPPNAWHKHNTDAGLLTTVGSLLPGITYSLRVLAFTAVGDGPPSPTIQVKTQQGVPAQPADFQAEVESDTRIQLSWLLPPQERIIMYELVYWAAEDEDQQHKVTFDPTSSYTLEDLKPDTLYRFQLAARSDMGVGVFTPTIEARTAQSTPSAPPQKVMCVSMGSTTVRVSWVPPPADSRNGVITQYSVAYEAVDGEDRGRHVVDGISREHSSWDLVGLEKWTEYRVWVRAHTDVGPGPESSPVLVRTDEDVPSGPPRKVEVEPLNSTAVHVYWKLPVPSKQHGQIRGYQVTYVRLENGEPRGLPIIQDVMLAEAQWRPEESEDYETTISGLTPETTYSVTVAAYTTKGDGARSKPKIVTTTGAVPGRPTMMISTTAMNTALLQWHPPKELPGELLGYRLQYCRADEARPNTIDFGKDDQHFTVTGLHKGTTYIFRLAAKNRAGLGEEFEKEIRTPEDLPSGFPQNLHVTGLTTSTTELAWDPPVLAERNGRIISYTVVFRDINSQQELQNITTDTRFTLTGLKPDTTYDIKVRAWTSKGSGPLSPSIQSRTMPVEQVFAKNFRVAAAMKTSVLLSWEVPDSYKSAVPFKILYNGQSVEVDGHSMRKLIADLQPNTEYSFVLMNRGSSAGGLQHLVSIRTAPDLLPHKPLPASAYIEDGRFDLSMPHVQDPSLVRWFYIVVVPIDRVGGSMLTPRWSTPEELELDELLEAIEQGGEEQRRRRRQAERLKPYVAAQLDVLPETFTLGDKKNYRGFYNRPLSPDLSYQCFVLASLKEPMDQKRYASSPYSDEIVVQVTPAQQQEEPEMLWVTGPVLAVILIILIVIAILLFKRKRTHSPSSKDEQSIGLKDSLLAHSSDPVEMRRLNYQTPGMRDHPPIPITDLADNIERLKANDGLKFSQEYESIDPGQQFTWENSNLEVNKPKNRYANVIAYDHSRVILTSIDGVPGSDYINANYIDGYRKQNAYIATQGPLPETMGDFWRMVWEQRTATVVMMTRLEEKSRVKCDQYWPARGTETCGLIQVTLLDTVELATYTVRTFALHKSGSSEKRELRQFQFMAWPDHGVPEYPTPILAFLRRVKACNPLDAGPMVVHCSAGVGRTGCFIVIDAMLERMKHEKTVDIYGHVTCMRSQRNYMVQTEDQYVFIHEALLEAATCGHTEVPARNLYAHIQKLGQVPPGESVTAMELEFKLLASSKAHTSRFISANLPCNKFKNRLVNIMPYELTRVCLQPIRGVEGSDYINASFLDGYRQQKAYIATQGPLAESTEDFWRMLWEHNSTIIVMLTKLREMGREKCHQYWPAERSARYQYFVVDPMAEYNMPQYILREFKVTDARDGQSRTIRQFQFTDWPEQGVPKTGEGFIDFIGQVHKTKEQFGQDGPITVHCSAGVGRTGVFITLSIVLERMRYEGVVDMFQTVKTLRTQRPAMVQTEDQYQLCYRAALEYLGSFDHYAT

[8] = Inhibition of Yersinia Tyrosine-protein phosphatase yopH; design: species or system Yersinia sp.

Compound	pIC50 [1]	pIC50 [2]	pIC50 [3]	pIC50 [4]	pIC50 [5]	pIC50 [6]	pIC50 [7]	pIC50 [8]
O=C(O)c1ccc(CN2C(=O)S/C(=C\c3cccc(Oc4ccccc4)c3)C2=O)cc1	4.74	3.32	–	3.89	–	4.43	–	–
O=C(O)c1ccc(CN2C(=O)S/C(=C\c3ccc(O)cc3)C2=O)cc1	5.00	3.73	–	4.07	–	4.52	–	–
O=C(O)COc1ccc(/C=C2\SC(=O)N(Cc3ccc(C(=O)O)cc3)C2=O)cc1	4.07	< 3.35	–	2.78	–	3.66	–	–
O=C(O)c1ccc(CN2C(=O)S/C(=C\c3cccc(O)c3)C2=O)cc1	4.99	2.86	–	3.95	–	4.07	–	–
O=C(O)c1ccc(CN2C(=O)S/C(=C\c3ccc4ccccc4c3)C2=O)cc1	5.19	3.83	–	4.04	–	4.92	–	–

The next compounds have a higher pIC50 [1] than those just listed; values first:

pIC50 [1]	pIC50 [2]	pIC50 [3]	pIC50 [4]	pIC50 [5]	pIC50 [6]	pIC50 [7]	pIC50 [8]	Compound
5.80	4.82	6.40	5.25	5.89	5.60	4.57	6.52	O=C(O)c1ccc(CN2C(=O)S/C(=C\c3ccc(OCc4ccccc4)cc3)C2=O)cc1
5.96	4.71	–	4.74	–	5.15	–	–	O=C(O)c1ccc(CN2C(=O)S/C(=C\c3cccc(OCc4ccccc4)c3)C2=O)cc1
5.59	3.41	–	4.58	–	5.04	–	–	COc1cc(/C=C2\SC(=O)N(Cc3ccc(C(=O)O)cc3)C2=O)ccc1O
5.55	4.47	5.96	4.89	5.55	6.05	–	6.00	O=C(O)c1ccc(CN2C(=O)S/C(=C\c3ccc(Oc4ccccc4)cc3)C2=O)cc1
5.26	4.00	–	3.86	–	3.91	–	–	O=C(O)c1ccc(CN2C(=O)S/C(=C\c3cccc4ccccc34)C2=O)cc1
